We go through 27 molecules from patent US8048879B2, “Substituted 4,5,6,7-tetrahydro-isoxazolo[4,5-c]pyridine compounds and use thereof for producing medicaments” (Gruenenthal GmbH, priority 2005, dated 2011).

In the first assay the target is T1, 5-HT transporter (Rattus norvegicus, UniProt P31652).
T1 construct: from tissue; host or cells: rat brain (medulla and pons), synaptosomes, P2 fraction
T1 sequence (P31652 whole entry): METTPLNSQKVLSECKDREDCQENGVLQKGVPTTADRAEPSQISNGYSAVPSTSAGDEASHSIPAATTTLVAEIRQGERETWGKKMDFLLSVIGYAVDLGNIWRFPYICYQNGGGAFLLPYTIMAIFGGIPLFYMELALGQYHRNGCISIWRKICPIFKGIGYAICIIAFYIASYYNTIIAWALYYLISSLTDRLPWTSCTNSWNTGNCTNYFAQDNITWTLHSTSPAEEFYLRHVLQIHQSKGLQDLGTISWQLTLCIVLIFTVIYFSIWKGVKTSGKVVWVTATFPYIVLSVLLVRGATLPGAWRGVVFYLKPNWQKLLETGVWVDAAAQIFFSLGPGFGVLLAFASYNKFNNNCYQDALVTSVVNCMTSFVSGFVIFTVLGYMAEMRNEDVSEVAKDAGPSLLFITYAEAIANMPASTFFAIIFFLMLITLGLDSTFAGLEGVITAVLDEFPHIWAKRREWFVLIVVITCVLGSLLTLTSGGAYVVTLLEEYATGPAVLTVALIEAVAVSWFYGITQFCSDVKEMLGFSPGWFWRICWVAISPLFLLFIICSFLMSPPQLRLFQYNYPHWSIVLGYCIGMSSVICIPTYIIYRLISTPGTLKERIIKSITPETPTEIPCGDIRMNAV
Put plainly: 5-HT uptake inhibition, synaptosomes from rat brain (medulla and pons). It counts as biochemical.
Conditions: not given
An excerpt: b) Method for Determining Noradrenalin and 5-HT Uptake Inhibition:
Synaptosomes from rat brain regions are freshly isolated for in vitro studies, as described in the publication “The isolation of nerve endings from brain” by E. G. Gray and V. P. Whittaker, J. Anatomy 96, pages 79-88, 1962. The corresponding literature description is hereby introduced as a reference and is deemed to be part of the disclosure.
The tissue (hypothalamus for the determination of noradrenalin uptake inhibition and medulla and pons for the determination of 5-HT uptake inhibition) is homogenised in ice-cooled 0.32 M sucrose (100 mg of tissue/1 mL) in a glass homogeniser with Teflon pestle using five complete up and down strokes at 840 revolutions/minute.
The homogenate is centrifuged at 4° C. for 10 minutes at 1000 g. After subsequent centrifugation at 17000 g for 55 minutes, the synaptosomes (P2 fraction) are obtained, which are resuspended in 0.32 M […] (0.5 mL/100 mg of original weight).
The particular uptake is measured in a 96-well microtitre plate. The volume is 250 μL and the incubation proceeds at room temperature (approx. 20-25° C.) under an O2 atmosphere.
The incubation time is 7.5 minutes for [^3H]-NA and 5 minutes for [^3H]-5-HT. The 96 samples are then filtered through a Unifilter GF/B® microtitre plate (Packard) and washed with 200 mL of incubated buffer using a “Brabdel MPXRI-96T Cell-Harvester”. The Unifilter GF/B plate is dried for 1 hour at 55° C. The plate is then sealed with a Back Seal® (Packard) and 35 μL of scintillation fluid are added per well (Ultima Gold®, Packard). After sealing with a top Seal® (Packard) and establishing an equilibrium (around 5 hours), radioactivity is determined in a “Trilux 1450 Microbeta” (Wallac).
The quantity of protein used in the above determination corresponds to the values known from the literature, as for example described in “Protein measurement with the folin phenol reagent”, Lowry et al., J. Biol. Chem., 193, 265-275, 1951.
A detailed description of the method may additionally be found in the literature, for example in M. Ch. Frink, H.-H. Hennies, W. Engelberger, M. Haurand and B. Wilffert (1996) Arzneim.-Forsch./Drug Res. 46 (III), 11, 1029-1036.
The following characteristics were determined for the NA or 5-HT transporter: […]
`O=C(NCCc1ccc(Cl)c(Cl)c1)c1noc2c1CN(S(=O)(=O)c1ccccc1)CC2` [Example 92, 5-benzenesulfonyl-4,5,6,7-tetrahydro-isoxazolo[4,5-c]pyridine-3-carboxylic acid [2-(3,4-dichloro-phenyl)-ethyl] amide]: testing at 10 µM gave an inhibition of 61%.
Same read-out and setting: in the case of `CCC(C)(CC(=O)O)CC(=O)N1CCc2onc(C(=O)NCCOC)c2C1` (stereo not drawn) [Example 26, 3-ethyl-5-[3-(2-methoxy-ethylcarbamoyl)-6,7-dihydro-4H-isoxazolo[4,5-c]pyridin-5-yl]-3-methyl-5-oxo-pentanoic acid] it was 54%.
Still for that read-out and setting: with `O=C(NCCN1CCCC1)c1noc2c1CN(C(=O)CC1CCCC1)CC2` [Example 71, 5-(2-cyclopentyl-acetyl)-4,5,6,7-tetrahydro-isoxazolo[4,5-c]pyridine-3-carboxylic acid (2-pyrrolidin-1-yl-ethyl) amide] the figure was 69%; with `O=C(NCCN1CCCC1)c1noc2c1CN(C(=O)c1ccc(Cl)nc1)CC2` [Example 77, 5-(6-chloro-pyridine-3-carbonyl)-4,5,6,7-tetrahydro-isoxazolo[4,5-c]pyridine-3-carboxylic acid (2-pyrrolidin-1-yl-ethyl) amide], 62%; with `COCCCNC(=O)c1noc2c1CN(S(=O)(=O)c1ccc(OC)cc1)CC2` [Example 62, 5-(4-methoxy-benzenesulfonyl)-4,5,6,7-tetrahydro-isoxazolo[4,5-c]pyridine-3-carboxylic acid (3-methoxy-propyl) amide], 67%.
Take `CC(=O)c1cccc(NC(=O)N2CCc3onc(C(=O)NCc4ccc(C)o4)c3C2)c1` [Example 15, 6,7-dihydro-4H-isoxazolo[4,5-c]pyridine-3,5-dicarboxylic acid 5-[(3-acetyl-phenyl) amide] 3-[(5-methyl-furan-2-ylmethyl) amide]]: the “5-HT uptake (rat), 10 μM, % inhibition” value is 58%.
`O=C(NCc1ccc(Cl)cc1Cl)c1noc2c1CN(S(=O)(=O)c1cccc(C(F)(F)F)c1)CC2` [Example 69, 5-(3-trifluoromethyl-benzenesulfonyl)-4,5,6,7-tetrahydro-isoxazolo[4,5-c]pyridine-3-carboxylic acid 2,4-dichloro-benzyl amide]: the inhibition – broadly, the change of the read-out against control, counted positive when it falls – at 10 µM was 64%.
The same measure, in the same setting: in the case of `CN(C)CCNC(=O)c1noc2c1CN(C(=O)COc1ccccc1)CC2` [Example 37, 5-(2-phenoxy-acetyl)-4,5,6,7-tetrahydro-isoxazolo[4,5-c]pyridine-3-carboxylic acid (2-dimethylamino-ethyl) amide] it was 61%.
On to `COCCNC(=O)c1noc2c1CN(C(=O)Nc1cccc(OC)c1)CC2` [Example 1, 6,7-dihydro-4H-isoxazolo[4,5-c]pyridine-3,5-dicarboxylic acid 3-[(2-methoxy-ethyl) amide] 5-[(3-methoxyphenyl) amide]], for which the “5-HT uptake (rat), 10 μM, % inhibition” value stood at 47%.
In turn, `CN(CCCNC(=O)c1noc2c1CN(S(=O)(=O)c1ccc(OC(F)(F)F)cc1)CC2)c1ccccc1` [Example 80, 5-(4-trifluoromethoxy-benzenesulfonyl)-4,5,6,7-tetrahydro-isoxazolo[4,5-c]pyridine-3-carboxylic acid [3-(methylphenyl-amino)-propyl] amide] came in with an inhibition at 10 µM of 65%.
In the case of `CCOC(=O)c1cccc(NC(=O)N2CCc3onc(C(=O)NCc4ccc(C)o4)c3C2)c1` [Example 23, 3-({3-[(5-methyl-furan-2-ylmethyl)-carbamoyl]-6,7-dihydro-4H-isoxazolo[4 5-c]pyridine-5-carbonyl}-amino)-benzoic acid ethyl ester], the “5-HT uptake (rat), 10 μM, % inhibition” value stood at 52%.
In the case of `O=C(NCCc1ccccc1Cl)c1noc2c1CN(S(=O)(=O)c1cc(Cl)ccc1Cl)CC2` [Example 52, 5-(2,5-dichloro-benzenesulfonyl)-4,5,6,7-tetrahydro-isoxazolo[4,5-c]pyridine-3-carboxylic acid [2-(2-chlorophenyl)-ethyl] amide], 10 µM produced 83% inhibition.
Still for that read-out and setting: in the case of `O=C(NCc1ccc(F)cc1)c1noc2c1CN(C(=O)c1ccc3ncccc3c1)CC2` [Example 124, 5-(quinoline-6-carbonyl)-4,5,6,7-tetrahydro-isoxazolo[4,5-c]pyridine-3-carboxylic acid 4-fluorobenzyl amide] it was 65%; in that of `Cc1cc(C(=O)N2CCc3onc(C(=O)NCCN4CCOCC4)c3C2)ccc1Br` [Example 90, 5-(4-bromo-3-methyl-benzoyl)-4,5,6,7-tetrahydro-isoxazolo[4,5-c]pyridine-3-carboxylic acid (2-morpholin-4-yl-ethyl) amide], 65%; in that of `COc1ccc(CC(=O)N2CCc3onc(C(=O)NCc4ccccc4)c3C2)cc1` [Example 79, 5-[2-(4-methoxyphenyl)-acetyl]-4,5,6,7-tetrahydro-isoxazolo[4,5-c]pyridine-3-carboxylic acid benzyl amide], 71%.
Still for that read-out and setting: with `C=CCOc1ccc(CN(Cc2ccco2)C(=O)c2noc3c2CN(S(=O)(=O)c2cccc(C(F)(F)F)c2)CC3)cc1` [Example 87, 5-(3-trifluoromethyl-benzenesulfonyl)-4,5,6,7-tetrahydro-isoxazolo[4,5-c]pyridine-3-carboxylic acid (4-allyloxy-benzyl)-furan-2-ylmethyl amide] the figure was 66%; with `CCOC(=O)CCNC(=O)c1noc2c1CN(C(=S)NCC1CCCCC1)CC2` [Example 134, 3-{[5-(cyclohexylmethyl-thiocarbamoyl)-4,5,6,7-tetrahydro-isoxazolo[4,5-c]pyridine-3-carbonyl]-amino}-propionic acid ethyl ester], 61%.
Same read-out and setting: in the case of `CC(=O)Nc1ccc(C(=O)N2CCc3onc(C(=O)NCC4CC4)c3C2)cc1` [Example 45, 5-(4-acetylamino-benzoyl)-4,5,6,7-tetrahydro-isoxazolo[4,5-c]pyridine-3-carboxylic acid cyclopropylmethyl amide] it was 85%; in that of `O=C(NC(=S)N1CCc2onc(C(=O)NCCN3CCCC3)c2C1)c1ccccc1` [Example 128, 5-benzoylaminocarbothioyl-4,5,6,7-tetrahydro-isoxazolo[4,5-c]pyridine-3-carboxylic acid (2-pyrrolidin-1-yl-ethyl) amide], 80%; in that of `Cc1ccc(C(=O)N2CCc3onc(C(=O)NCCN4CCCC4)c3C2)cc1F` [Example 115, 5-(3-fluoro-4-methyl-benzoyl)-4,5,6,7-tetrahydro-isoxazolo[4,5-c]pyridine-3-carboxylic acid (2-pyrrolidin-1-yl-ethyl) amide], 65%.
`Cc1cc(C(=O)N2CCc3onc(C(=O)NCCN4CCCC4)c3C2)ccc1Br` [Example 102, 5-(4-bromo-3-methyl-benzoyl)-4,5,6,7-tetrahydro-isoxazolo[4,5-c]pyridine-3-carboxylic acid (2-pyrrolidin-1-yl-ethyl) amide] returned an inhibition at 10 µM of 70%.
Take `O=C(Nc1ccccc1)c1noc2c1CN(C(=O)Nc1ccc(OC(F)(F)F)cc1)CC2` [Example 3, 6,7-dihydro-4H-isoxazolo[4,5-c]pyridine-3,5-dicarboxylic acid 3-phenyl amide 5-[(4-trifluoromethoxy-phenyl) amide]]: the “5-HT uptake (rat), 10 μM, % inhibition” value was determined as 45%.
In the case of `COc1ccc(S(=O)(=O)N2CCc3onc(C(=O)NCc4cccc(OC)c4OC)c3C2)cc1` [Example 95, 5-(4-methoxy-benzenesulfonyl)-4,5,6,7-tetrahydro-isoxazolo[4,5-c]pyridine-3-carboxylic acid 2,3-dimethoxy-benzyl amide], the inhibition at 10 µM was determined as 68%.
With `CCOC(=O)CCNC(=O)c1noc2c1CN(C(=O)Nc1cc(F)ccc1F)CC2` [Example 6], the “5-HT uptake (rat), 10 μM, % inhibition” value is 43%.
`CC(C)CNC(=O)c1noc2c1CN(C(=O)c1cc(C(F)(F)F)ccc1Cl)CC2` [Example 116, 5-(2-chloro-5-trifluoromethyl-benzoyl)-4,5,6,7-tetrahydro-isoxazolo[4,5-c]pyridine-3-carboxylic acid isobutyl amide] returned an inhibition at 10 µM of 77%.
On the same count and under the same terms, in the case of `COc1ccc(C(=O)N2CCc3onc(C(=O)NCCN(C)C)c3C2)cc1` [Example 58, 5-(4-methoxy-benzoyl)-4,5,6,7-tetrahydro-isoxazolo[4,5-c]pyridine-3-carboxylic acid (2-dimethylamino-ethyl) amide] it was 81%.

Still in this assay, the particulars now being: 10 µM.
Turning to `O=C(NCCN1CCCC1)c1noc2c1CN(C(=O)COc1cccc(Cl)c1)CC2` [Example 94, 5-[2-(3-chlorophenoxy)-acetyl]-4,5,6,7-tetrahydro-isoxazolo[4,5-c]pyridine-3-carboxylic acid (2-pyrrolidin-1-yl-ethyl) amide], the “5-HT uptake (rat), 10 μM, % inhibition” value was 94%.
